Series [1] addresses Tyrosine-protein kinase JAK2 (Homo sapiens, UniProt O60674). In words: Inhibition of JAK2 signaling pathway in human CHEP cells assessed as inhibition of EPO-induced cell survival preincubated for 1 hr followed by EPO addition and measured after 48 hrs by CellTiter-Glo luminescent assay. It counts as toxicity, cell-based. On the technique in general: ATP-based viability assays read luminescence as a measure of living cells.

Series [2] addresses T1, Cytochrome P450 3A4 (Homo sapiens, UniProt P08684). Kind of series: Inhibition of CYP3A4 (unknown origin) in absence of NADPH. Format: ADME.
For series [3], the target named is T1, Cytochrome P450 3A4. In words: Inhibition of CYP3A4 (unknown origin) in presence of NADPH. Format: ADME.
Series [4] has as its target T2, Tyrosine-protein kinase SYK (Homo sapiens, UniProt P43405). In words: Inhibition of SYK (unknown origin) assessed as reduction of IgM-stimulated ERK phosphorylation by Cell-based assay.
Series [5] is described as follows: Inhibition of IL-2 stimulated IFN-gamma production in BALB/c mouse at 40 mg/kg, po pretreated for 30 mins followed by IL-2 stimulation and measured after 4 hrs by ELISA. Format: functional. The note with it: time 4.5 hrs. (In general: In an ELISA, binding on a coated surface is turned into a signal by an enzyme label.)
The target of series [6] is JAK3/JAK1 (Homo sapiens, UniProt P23458+P52333). In words: Inhibition of JAK1/JAK3 in human primary T-cells assessed as reduction of IL-2 stimulated STAT5 phosphorylation preincubated for 1 hr followed by IL-2 stimulation for 15 mins by FACS method. It counts as cell-based, T-cell.
Series [7] can be described thus: Plasma protein binding in rat. Format: ADME, cell-free. The settings on record: read-out: PPB (converted).
Series [8] is described as follows: Plasma protein binding in human. It counts as ADME, cell-free. The settings on record: read-out: PPB (converted).
The species named for series [9] is Homo sapiens. Kind of series: Selectivity ratio of IC50 for inhibition of JAK2 signaling pathway in EPO-stimulated human CHEP cells to IC50 for inhibition of JAK1/JAK3 in human primary T-cells assessed as reduction of IL-2 stimulated STAT5 phosphorylation.
Series [10] is described as follows: Inhibition of IL-2 stimulated IFN-gamma production in BALB/c mouse at 5 mg/kg, po pretreated for 30 mins followed by IL-2 stimulation and measured after 4 hrs by ELISA. Format: functional. The settings on record: time 4.5 hrs.
Series [11] in a line: Oral bioavailability in Sprague-Dawley rat 5 mg/kg. The settings on record: in vivo. It counts as ADME, organism-based.
Series [12] concerns the target T2, Tyrosine-protein kinase SYK. In words: Inhibition of human full length recombinant N-terminal GST-tagged SYK expressed in baculovirus expression system at 250 nM by Z'-lyte assay.
Series [13] is described as follows: AUC in Sprague-Dawley rat 5 mg/kg, po. Format: ADME, organism-based. Set-up: dose 5 mg/kg, route po. The note with it: in vivo.
Series [14] concerns Rattus norvegicus. Kind of series: Antiarthritic activity against collagen-induced arthritis Lewis rat model assessed as reduction in disease severity by measuring inhibition of hind limb clinical score at 50 mg/kg, po bid measured upto 20 days. Format: functional. The settings on record: 480 h, time <= 20 day.
The test system of series [15] is Rattus norvegicus. In words: Antiarthritic activity against collagen-induced arthritis Lewis rat model assessed as reduction in disease severity by measuring inhibition of hind limb clinical score at 100 mg/kg, po qd measured upto 20 days. Format: functional. The settings on record: 480 h, time <= 20 day.
Series [16] deals with Rattus norvegicus. In words: Antiarthritic activity against collagen-induced arthritis Lewis rat model assessed as reduction in disease severity by measuring inhibition of hind limb clinical score at 25 mg/kg, po bid measured upto 20 days. The note with it: 480 h, time <= 20 day. Format: functional.
For series [17], the target named is T3, Cytochrome P450 1A2 (Homo sapiens, UniProt P05177).
T3 sequence (P05177 whole entry): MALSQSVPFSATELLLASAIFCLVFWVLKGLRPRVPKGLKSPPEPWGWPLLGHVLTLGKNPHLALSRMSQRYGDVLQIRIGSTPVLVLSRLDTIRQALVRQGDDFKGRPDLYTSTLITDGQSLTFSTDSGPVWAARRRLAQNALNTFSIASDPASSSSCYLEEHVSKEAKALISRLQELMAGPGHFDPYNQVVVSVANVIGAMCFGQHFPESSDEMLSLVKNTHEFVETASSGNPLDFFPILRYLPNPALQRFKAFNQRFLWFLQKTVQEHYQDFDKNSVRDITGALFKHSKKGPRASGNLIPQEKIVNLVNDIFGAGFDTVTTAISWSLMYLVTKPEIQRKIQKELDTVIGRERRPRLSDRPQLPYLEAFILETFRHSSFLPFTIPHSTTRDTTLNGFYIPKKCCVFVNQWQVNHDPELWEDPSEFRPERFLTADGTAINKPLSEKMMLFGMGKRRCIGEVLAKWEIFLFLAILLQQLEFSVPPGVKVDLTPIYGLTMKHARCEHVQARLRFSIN
Kind of series: Inhibition of CYP1A2 (unknown origin). It counts as ADME.

Each structure is given as a SMILES string.

T1 sequence (P08684 whole entry): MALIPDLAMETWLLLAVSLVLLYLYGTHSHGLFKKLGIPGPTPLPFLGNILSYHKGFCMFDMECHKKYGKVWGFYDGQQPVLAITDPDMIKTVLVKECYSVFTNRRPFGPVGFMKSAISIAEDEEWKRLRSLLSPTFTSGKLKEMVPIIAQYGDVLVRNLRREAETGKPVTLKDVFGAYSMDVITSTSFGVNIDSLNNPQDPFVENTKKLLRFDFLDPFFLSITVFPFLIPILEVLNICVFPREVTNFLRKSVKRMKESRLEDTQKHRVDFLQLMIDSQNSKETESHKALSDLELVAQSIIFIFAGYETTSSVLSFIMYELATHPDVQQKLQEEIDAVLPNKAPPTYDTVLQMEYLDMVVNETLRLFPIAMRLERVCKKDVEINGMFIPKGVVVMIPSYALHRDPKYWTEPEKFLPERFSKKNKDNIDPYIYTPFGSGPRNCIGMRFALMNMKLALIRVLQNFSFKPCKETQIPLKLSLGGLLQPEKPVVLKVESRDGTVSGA
Chain of Tyrosine-protein kinase JAK2 (O60674 whole entry): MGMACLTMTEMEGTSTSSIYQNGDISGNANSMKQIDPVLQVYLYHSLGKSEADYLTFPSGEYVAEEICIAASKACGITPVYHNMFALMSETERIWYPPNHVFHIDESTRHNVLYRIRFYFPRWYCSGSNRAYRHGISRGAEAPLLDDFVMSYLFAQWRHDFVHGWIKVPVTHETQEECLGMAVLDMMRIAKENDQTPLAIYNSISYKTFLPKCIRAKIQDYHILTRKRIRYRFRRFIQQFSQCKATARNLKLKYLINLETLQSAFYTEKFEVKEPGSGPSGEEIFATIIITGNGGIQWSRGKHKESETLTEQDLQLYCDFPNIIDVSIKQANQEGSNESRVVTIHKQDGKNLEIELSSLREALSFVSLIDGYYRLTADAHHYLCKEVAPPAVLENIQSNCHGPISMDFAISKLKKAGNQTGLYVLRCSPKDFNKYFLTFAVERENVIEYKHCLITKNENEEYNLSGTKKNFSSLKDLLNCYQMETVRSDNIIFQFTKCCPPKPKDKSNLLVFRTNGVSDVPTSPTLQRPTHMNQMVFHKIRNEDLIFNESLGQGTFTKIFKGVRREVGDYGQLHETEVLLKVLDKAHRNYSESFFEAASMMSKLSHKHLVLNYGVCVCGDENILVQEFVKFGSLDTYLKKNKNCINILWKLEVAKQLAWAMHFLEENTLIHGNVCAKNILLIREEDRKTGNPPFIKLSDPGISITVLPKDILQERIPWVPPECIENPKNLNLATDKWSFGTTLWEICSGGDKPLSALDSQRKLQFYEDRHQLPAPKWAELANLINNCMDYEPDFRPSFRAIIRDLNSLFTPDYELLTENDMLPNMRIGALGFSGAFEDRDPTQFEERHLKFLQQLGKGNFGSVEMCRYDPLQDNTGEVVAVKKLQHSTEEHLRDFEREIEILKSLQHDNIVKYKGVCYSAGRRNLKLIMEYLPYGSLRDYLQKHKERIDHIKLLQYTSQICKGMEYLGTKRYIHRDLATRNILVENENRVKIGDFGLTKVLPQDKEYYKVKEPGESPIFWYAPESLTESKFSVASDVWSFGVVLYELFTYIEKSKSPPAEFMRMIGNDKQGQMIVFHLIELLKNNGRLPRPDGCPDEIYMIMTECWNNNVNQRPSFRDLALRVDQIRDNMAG
Chain of JAK3/JAK1 (P52333 whole entry): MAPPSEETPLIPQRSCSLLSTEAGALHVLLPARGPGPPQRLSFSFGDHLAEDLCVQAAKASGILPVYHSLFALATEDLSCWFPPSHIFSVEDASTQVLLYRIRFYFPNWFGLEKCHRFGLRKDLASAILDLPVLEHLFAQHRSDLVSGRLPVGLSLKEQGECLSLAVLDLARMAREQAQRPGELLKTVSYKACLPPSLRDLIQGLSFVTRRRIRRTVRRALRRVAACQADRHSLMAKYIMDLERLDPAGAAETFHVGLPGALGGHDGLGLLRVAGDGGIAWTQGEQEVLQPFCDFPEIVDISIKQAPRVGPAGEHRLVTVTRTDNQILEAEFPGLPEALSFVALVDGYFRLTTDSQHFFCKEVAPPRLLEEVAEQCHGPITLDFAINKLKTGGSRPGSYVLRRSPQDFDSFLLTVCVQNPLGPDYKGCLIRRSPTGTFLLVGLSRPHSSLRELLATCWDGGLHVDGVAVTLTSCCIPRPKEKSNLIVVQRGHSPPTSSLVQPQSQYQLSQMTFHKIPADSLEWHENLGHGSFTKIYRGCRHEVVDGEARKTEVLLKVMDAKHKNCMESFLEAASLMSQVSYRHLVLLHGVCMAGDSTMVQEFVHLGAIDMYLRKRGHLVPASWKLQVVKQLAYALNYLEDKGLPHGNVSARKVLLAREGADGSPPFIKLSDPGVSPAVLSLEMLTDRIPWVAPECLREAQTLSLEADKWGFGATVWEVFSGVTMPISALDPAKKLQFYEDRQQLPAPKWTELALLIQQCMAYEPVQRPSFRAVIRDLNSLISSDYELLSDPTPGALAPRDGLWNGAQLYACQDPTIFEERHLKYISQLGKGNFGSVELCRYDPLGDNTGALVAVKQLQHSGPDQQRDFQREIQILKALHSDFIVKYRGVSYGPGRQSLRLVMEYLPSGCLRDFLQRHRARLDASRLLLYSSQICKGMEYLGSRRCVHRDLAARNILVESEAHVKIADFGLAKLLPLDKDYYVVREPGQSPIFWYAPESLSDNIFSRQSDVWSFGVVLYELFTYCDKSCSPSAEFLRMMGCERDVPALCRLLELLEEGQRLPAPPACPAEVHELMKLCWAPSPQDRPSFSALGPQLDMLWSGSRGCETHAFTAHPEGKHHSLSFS
Chain of JAK3/JAK1 (P23458 whole entry): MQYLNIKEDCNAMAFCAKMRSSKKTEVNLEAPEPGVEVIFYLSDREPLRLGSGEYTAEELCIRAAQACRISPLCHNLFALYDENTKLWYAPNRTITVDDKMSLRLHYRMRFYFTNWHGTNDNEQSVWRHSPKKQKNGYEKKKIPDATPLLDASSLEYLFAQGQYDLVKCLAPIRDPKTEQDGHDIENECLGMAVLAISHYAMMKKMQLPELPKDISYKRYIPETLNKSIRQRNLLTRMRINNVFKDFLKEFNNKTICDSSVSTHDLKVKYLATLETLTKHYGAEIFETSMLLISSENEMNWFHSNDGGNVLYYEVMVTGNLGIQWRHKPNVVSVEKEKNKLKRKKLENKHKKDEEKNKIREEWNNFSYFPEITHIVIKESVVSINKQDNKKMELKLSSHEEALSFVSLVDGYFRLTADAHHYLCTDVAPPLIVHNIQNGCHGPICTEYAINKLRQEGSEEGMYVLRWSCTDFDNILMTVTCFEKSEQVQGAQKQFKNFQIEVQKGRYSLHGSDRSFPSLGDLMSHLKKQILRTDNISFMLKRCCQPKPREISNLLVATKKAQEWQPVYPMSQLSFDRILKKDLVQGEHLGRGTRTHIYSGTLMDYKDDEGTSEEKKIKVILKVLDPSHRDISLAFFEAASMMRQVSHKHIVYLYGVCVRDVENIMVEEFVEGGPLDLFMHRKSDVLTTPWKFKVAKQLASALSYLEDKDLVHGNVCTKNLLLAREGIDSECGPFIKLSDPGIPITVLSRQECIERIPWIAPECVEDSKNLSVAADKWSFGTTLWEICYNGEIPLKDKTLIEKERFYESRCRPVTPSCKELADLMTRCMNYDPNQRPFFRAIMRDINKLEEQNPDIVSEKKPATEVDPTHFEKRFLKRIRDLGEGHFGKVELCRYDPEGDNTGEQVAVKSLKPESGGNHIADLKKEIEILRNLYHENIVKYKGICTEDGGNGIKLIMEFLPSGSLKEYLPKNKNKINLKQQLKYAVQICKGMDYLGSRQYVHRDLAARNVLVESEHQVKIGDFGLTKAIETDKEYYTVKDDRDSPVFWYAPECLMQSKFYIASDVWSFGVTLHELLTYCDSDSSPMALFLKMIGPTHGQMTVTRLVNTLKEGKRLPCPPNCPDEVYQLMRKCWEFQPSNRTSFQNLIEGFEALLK

The IC50 is the midpoint of a concentration-inhibition curve. `COc1cc(CF)cc(Nc2ncc(C)c(Nc3ccc4oc(=O)[nH]c4c3)n2)c1`: the half-maximal inhibitory concentration (IC50) was 0.17 µM in [1], over 10 µM in series [2] and 8 µM in [3].
Usually inhibition in vivo stands for the drop in the measured response relative to a control, in per cent. Consider `Cc1cnc(Nc2cccc(S(N)(=O)=O)c2)nc1Nc1ccc2oc(=O)[nH]c2c1`, for which, in series [4], the IC50 was found to be 5 µM. Further, in series [5], the inhibition in vivo at 40 mg/kg was 30%.
With `Cc1cnc(Nc2ccc(NS(C)(=O)=O)cc2)nc1Nc1ccc2oc(=O)[nH]c2c1`, the inhibition in vivo at 40 mg/kg in series [5] stood at 8%.
Same read-out and setting: the figure for `Cc1cnc(Nc2cccc(NS(C)(=O)=O)c2)nc1Nc1ccc2oc(=O)[nH]c2c1` is 15%.
Still for that read-out and setting: the figure for `Cc1cnc(Nc2ccc(C#N)cc2)nc1Nc1ccc2oc(=O)[nH]c2c1` is 0%.
The bioavailability is dose-corrected exposure relative to a reference, in per cent. In the case of `Cc1cnc(Nc2ccc(N3CCN(C)CC3)nc2)nc1Nc1ccc2oc(=O)[nH]c2c1`, the IC50 in series [6] was 0.02 µM; in series [1] it was 0.084 µM; in series [2], over 10 µM; in series [3], 4 µM. The fraction unbound was 0.16 in series [7] and 0.19 in [8]. The inhibition in vivo at 40 mg/kg in series [5] is 82%. Further, the Ratio IC50 in series [9] is 4. Also, the inhibition in vivo at 5 mg/kg in [10] amounted to 30%. The bioavailability in [11] is 4%.
For the compound `COc1cc(C)cc(Nc2ncc(C)c(Nc3ccc4oc(=O)[nH]c4c3)n2)c1`, the inhibition in vivo at 40 mg/kg in series [5] stood at 91%. Also, the half-maximal inhibitory concentration (IC50) is 0.354 µM in series [1], over 10 µM in series [2] and over 10 µM in series [3]. The inhibition in vivo at 5 mg/kg in series [10] was determined as 55%.
Regarding `COc1cc(Nc2ncc(C)c(Nc3ccc4oc(=O)[nH]c4c3)n2)cc(C(F)F)c1`, in series [5], the inhibition in vivo at 40 mg/kg was determined as 92%. For the same compound, the values for the 50% inhibitory concentration (IC50) in series [1], in series [2] and in series [3] were 0.173 µM, over 10 µM and 3 µM, respectively. For the same compound, the inhibition in vivo at 5 mg/kg in series [10] worked out at 66%.
For orientation: inhibition means the share of the control response that was lost under treatment. As to `COc1cc(Nc2ncc(C)c(Nc3ccc4oc(=O)[nH]c4c3)n2)cc(C)c1F`, the Ratio IC50 in series [9] is 24. For the same compound, the inhibition in series [12] is under 50%.
For `COc1cc(Nc2ncc(C)c(Nc3ccc4oc(=O)[nH]c4c3)n2)cc(C(F)(F)F)c1`, the inhibition in vivo at 40 mg/kg in series [5] turned out to be 90%. For the same compound, the IC50 was 1.69 µM in series [1], 7.2 µM in series [2] and 0.5 µM in series [3]. The inhibition in vivo at 5 mg/kg in series [10] is 78%.
With `COc1ccc(Nc2ncc(C)c(Nc3ccc4oc(=O)[nH]c4c3)n2)cc1C(F)(F)F`, in series [5], the inhibition in vivo at 40 mg/kg was found to be 32%. The IC50 amounted to 1.98 µM in [1], 4.8 µM in [2] and 0.4 µM in series [3].
`Cc1cnc(Nc2ccc(F)c(C(F)(F)F)c2)nc1Nc1ccc2oc(=O)[nH]c2c1`: the IC50 in series [1] was 0.503 µM; in series [2], over 10 µM; in series [3], 0.7 µM.
For `Cc1cnc(Nc2cccc(S(N)(=O)=O)c2)nc1Nc1ccc2c(c1)NC(=O)CO2`, in series [4], the half-maximal inhibitory concentration (IC50) stood at 0.7 µM.
Turning to `COc1cc(Nc2ncc(C)c(Nc3ccc4oc(=O)[nH]c4c3)n2)cc(C)c1OC`, the figures for the IC50 in [1], in series [2] and in series [3] were 0.042 µM, over 10 µM and 2.7 µM, respectively.
For `COc1cc(Nc2ncc(C)c(Nc3ccc4oc(=O)[nH]c4c3)n2)cc(OC)c1OC`, the IC50 in series [6] is 0.026 µM; in series [1], 0.081 µM; in [2], over 10 µM; in series [3], 1.1 µM. Also, the inhibition in vivo at 40 mg/kg in [5] was 88%. Further, in series [9], the Ratio IC50 is 3.
As to `COc1cc(Nc2ncc(C)c(Nc3ccc4oc(=O)[nH]c4c3)n2)cc(OC)c1`, the IC50 in series [1] was 0.132 µM.
Broadly, the AUC is concentration integrated over time. Higher therefore signals more exposure. For the compound `COc1cc(Nc2ncc(C)c(Nc3ccc4oc(=O)[nH]c4c3)n2)cc(C)c1F.O=S(=O)(O)c1ccccc1`, the bioavailability in series [11] was determined as 37%. Besides, the AUC in series [13] worked out at 0.507 µg·h/mL. Besides, the inhibition in vivo at 50 mg/kg in [14] amounted to 98%. Moreover, in series [15], the inhibition in vivo at 100 mg/kg came to 98%. Besides, the inhibition in vivo at 25 mg/kg in series [16] came out at 75%.
A word on the Ki: it is a dissociation constant, usually derived from enzyme kinetics or from competition with a known ligand. With `COc1cc(Nc2ncc(C)c(Nc3ccc4oc(=O)[nH]c4c3)n2)cc(C)c1C`, in series [5], the inhibition in vivo at 40 mg/kg stood at 90%. The half-inhibitory concentration (IC50) was 1.11 µM in [1], over 10 µM in [2] and 2.9 µM in [3]. Moreover, in series [10], the inhibition in vivo at 5 mg/kg was 68%. Besides, the Ki in series [17] amounted to 6 µM.
With `Cc1cnc(Nc2ccc(N3CCOCC3)nc2)nc1Nc1ccc2oc(=O)[nH]c2c1`, the 50% inhibitory concentration (IC50) in series [6] stood at 0.022 µM. In addition, in series [5], the inhibition in vivo at 40 mg/kg was 36%. This compound also yielded a bioavailability in [11] of under 1%.
As for `Cc1cnc(Nc2cccc(C#N)c2)nc1Nc1ccc2oc(=O)[nH]c2c1`, in series [5], the inhibition in vivo at 40 mg/kg worked out at 1%.
Consider `Cc1cnc(Nc2cccc(S(C)(=O)=O)c2)nc1Nc1ccc2oc(=O)[nH]c2c1`, for which, in series [5], the inhibition in vivo at 40 mg/kg amounted to 56%.

For the origin of these results see ChEMBL document CHEMBL5113550, “Optimization of Pyrimidine Compounds as Potent JAK1 Inhibitors and the Discovery of R507 as a Clinical Candidate” (ACS Med Chem Lett, 2022).
